According to ChEMBL document CHEMBL1157539, “Thousands of chemical starting points for antimalarial lead identification” (Nature, 2010):

System: Plasmodium falciparum
Test: GSK_TCMDC: Inhibition of Plasmodium falciparum 3D7 in whole erythrocytes, using parasite LDH activity as an index of growth.
Assay type: functional, organism-based
Settings: Plasmodium falciparum, 3D7

In order of falling XC50:
1. NC1CCN(CCc2ccc(NS(=O)(=O)c3cccc4ccccc34)cc2)CC1  1700 nM
2. C=CCN(c1nc(NC)nc(NCc2c(OC)cccc2OC)n1)C1CCCC1  1460 nM
3. N#CN1CC[C@@H](OC(=O)N[C@@H]2C[C@H]2c2ccccc2)C1  1340 nM
4. CC(C)(Cc1ccc(Cl)cc1)NCCCCCCNCCc1ccc(O)c(O)c1  1200 nM
5. COc1ccc(CN2CCN(CCOC(c3ccccc3)c3ccccc3)CC2)c(O)c1  1190 nM
6. CCCCCCCc1c(C)nc2cccc(OC)c2c1O  1130 nM
7. O=C(Nc1nc2cc(S(=O)(=O)NCCc3ccc(F)cc3)ccc2n1CCCn1ccnc1)c1ccc(Cl)cc1  1110 nM
8. CC(C)(C)c1ccc(NC(=O)c2ccc(CN3CCCN(Cc4ccc(F)cc4)CC3)cc2)cc1  1110 nM
9. Cc1oc(-c2cccc(Oc3ccccc3)c2)nc1CN(Cc1cnn(C)c1)C(C)C  1090 nM
10. CC(C)Cn1c(Sc2ccc(C#N)c([N+](=O)[O-])c2)nnc1-c1cccs1  1080 nM
11. CC(C)(C)C(Cn1ccnc1)NCc1c[nH]nc1-c1ccc(-c2ccccc2)cc1 (configuration not stated)  1060 nM
12. CC(=O)CC(=O)N1CCN(c2ccccc2)CC1  1060 nM
13. CC(=O)N(Cc1ccccc1-c1cccc(CNCc2ccc3c(c2)OCO3)c1)C1CCN(Cc2ccccc2)CC1  1050 nM
14. CCNc1cc(C(=O)N[C@@H](Cc2ccccc2)[C@H](O)CN[C@@H]2CCc3ccccc32)cc(N2CCCC2=O)c1  1020 nM
15. CC(Oc1ccc(Cl)cc1)C(=O)NCCC1CCN(CCCCCNC(=O)/C=C/c2ccc(Cl)c(Cl)c2)CC1 (configuration not stated)  1020 nM
16. CCNc1cc(C)nc(Nc2ccc(NC(=O)c3cccs3)cc2)n1  1020 nM
17. O=c1cc(NCCCNCc2cc3ccc(Br)cc3s2)[nH]c2ccccc12  990 nM
18. O=C(CSc1nc(-c2ccccc2Cl)ns1)Nc1ccc2c(c1)OCO2  988 nM
19. Nc1c(Cl)cc(C(O)CNCCCCCOCCc2ccccc2)cc1C(F)(F)F (configuration not stated)  978 nM
20. COCCNCc1ccc(-c2ccccc2CNC2CCN(Cc3ccccc3)CC2)cc1  975 nM
21. Cc1ccc(C)c(Cn2c(N3CCC(C(=O)NCc4cccs4)CC3)nc3ccccc32)c1  938 nM
22. Nc1ccc(-c2ccc(NC(=O)Nc3ccccc3)cc2)cn1  920 nM
23. C[C@@H](Nc1nc(NCc2ccccc2)c2sccc2n1)c1ccccc1  919 nM
24. CCCCC(CC)NC(=O)[C@H]1CNCCN1C(=O)CCCc1ccccc1 (some centres not stated)  885 nM
25. O=C(Cc1ccc(NC(=O)c2ccc(O)c(-c3ccc(Cl)c(Cl)c3)c2)cc1)NCc1cccc(C(F)(F)F)c1  878 nM
26. CCN(CC)CCN(Cc1ccc(-c2ccc(C(F)(F)F)cc2)cc1)C(=O)Cn1c(/C=C/c2ccco2)nc(=O)c2ccccc21  870 nM
27. COc1ccc(Cl)cc1N1CCN(CCCNC(=O)c2ccc(-c3nc4cc(Cl)c(Cl)cc4[nH]3)c(C)c2)CC1  866 nM
28. O=C(O)Cc1ccc(-c2c[nH]c3ncc(-c4cccc5ncccc45)cc23)cc1  847 nM
29. CCOc1ccc(NC(C)=O)c(O)c1  843 nM
30. O=C(CCC1CCCCC1)NCCNc1cccc2ccccc12  831 nM
31. COc1cc(N(Cc2ccc(F)cc2)C(=O)c2ccc(-c3ccccc3)cc2)ccc1OCCN1CCCC1  830 nM
32. CC[C@H](C)CNC(=O)c1cncc(-c2ccc(CNC3Cc4ccccc4C3)cc2)c1  829 nM
33. O=C(Cn1c(CCc2cccc(F)c2F)nc(=O)c2cccnc21)N(Cc1ccc(-c2ccc(C(F)(F)F)cc2)cc1)C1CCN(C2CCOCC2)CC1  828 nM
34. c1ccc(-c2nc(Nc3ccncc3)sc2-c2ccccc2)cc1  812 nM
35. Cc1cc(N(C)CCN(C)C)nc(Nc2ccc(Br)cc2)n1  801 nM
36. CCCCCCNC(=O)C1Cc2c([nH]c3ccc(Br)cc23)C2(CCN(CCc3ccccc3)CC2)N1 (configuration not stated)  788 nM
37. O=C(NCC(CCCN1CCC(c2c[nH]c3ccccc23)CC1)c1ccccc1)Nc1ccc(Cl)c(Cl)c1 (configuration not stated)  787 nM
38. C#CCOc1ccc2ccccc2c1CNCCCCCCNCc1c(OCC#C)ccc2ccccc12  780 nM
39. CSc1ccc(NC(=O)Nc2cc(C)nc3ccccc23)cc1Br  778 nM
40. CC(=O)Nc1cccc(C(=O)Nc2cccc(-c3ccc(-c4nc5cccc(C)c5[nH]4)s3)c2)c1  767 nM
41. Cc1[nH]c2ccc(O)cc2c1C1CCN(CC2CCC(NC(=O)/C=C/c3ccc(Cl)c(Cl)c3)CC2)CC1 (configuration not stated)  764 nM
42. COc1ccc(-c2cccc(NC(=O)c3cccc(Cl)c3)c2)cc1CN1CCN(C)CC1  760 nM
43. O=C(CCCCCNC(=O)c1ccc(O)c(-c2ccc(Cl)c(Cl)c2)c1)NC1CCCc2ccccc21 (configuration not stated)  759 nM
44. C[C@@H](N/C(=N\c1ccccc1Cl)Nc1ccc(C#N)cc1O)c1ccc(Br)cc1  753 nM
45. C=C(C)C1CC=C(CN2CCCC(n3ccc4cc(NC(=O)c5ccco5)ccc43)CC2)CC1 (configuration not stated)  753 nM
46. CC(C)CCNC(=O)c1cc(C(=O)c2cc(F)ccc2O)cn(CCC(C)C)c1=O  753 nM
47. O=C(Nc1ccc(-c2ccccc2)s1)N[C@H]1CCN(Cc2ccc(OCCCN3CCCCC3)cc2)C1  742 nM
48. CC(O)C1CCCCN1C(=O)c1cccc(-c2ccc(-c3nc4cc(F)ccc4[nH]3)cc2)c1 (configuration not stated)  742 nM
49. CN(C)CCNCc1nc(-c2ccc3c(Nc4ccc(Oc5ccccc5)cc4)ccnc3c2)cs1  736 nM
50. Cc1cc2c(cc1C(F)(F)F)N(C(=O)Nc1cc(C(=O)NCCN(C)C)cc(C(F)(F)F)c1)CC2  730 nM
51. CN(C)CCCn1cncc1-c1ccc2ncnc(Nc3ccc4c(cnn4Cc4ccccc4)c3)c2c1  726 nM
52. CCN(CC)CCN(Cc1ccc(-c2ccc(C(F)(F)F)cc2)cc1)C(=O)Cn1c(CCc2cc(F)c(F)cc2F)nc(=O)c2ccccc21  718 nM
53. c1ccc2c(C3CCN(CCCCOc4ccc5c(c4)CCN(C4CCC4)CC5)CC3)c[nH]c2c1  705 nM
54. COc1ccc(-c2cc(C(=O)Nc3ccc(CCCN(C)Cc4ccc(OC)c(OC)c4)cc3)c3ccccc3n2)cc1  698 nM
55. COc1ccc(CCNCCCCCCNCCc2ccccc2Cl)cc1OC  657 nM
56. CS(=O)(=O)CCNCc1cccc(-c2cc3nccc(Nc4ccc(Oc5ccccc5)cc4)c3cc2Cl)c1  625 nM
57. CCCCCCCN1CC[C@@H](CCCc2ccnc3ccc(OCCC4CCNCC4)cc23)[C@@H](CC)C1  610 nM
58. CCCNCc1c(O)ccc2c(CNCCC)c(O)ccc12  597 nM
59. CCCN(Cc1nnc(-c2cccs2)o1)C(=O)CSc1nnnn1-c1ccc(C)c(C)c1  582 nM
60. Cc1cn(CC(=O)Nc2cccc(-c3cccc(-c4nc5cccc(C)c5[nH]4)c3)c2)c(=O)[nH]c1=O  581 nM
61. COc1ccc(CCNCc2ccc3c(C)cc(N)nc3c2)cc1  568 nM
62. COc1ccc(Nc2ncc3c(-c4cccc(NC(=O)Cc5cccc(F)c5)c4)c[nH]c3n2)cc1OC  567 nM
63. CO/C(=C\C=C\c1cc2cc(Cl)c(Cl)cc2[nH]1)C(=O)NCCCCN1CCN(c2ccccc2OC)CC1  514 nM
64. COc1ccc(-c2ccc(NC(=O)c3cccc(Cl)c3)cc2)cc1CNC(C)C  466 nM
65. Cc1noc(-c2cccs2)c1C(=O)NCCc1cccc(Cl)c1  463 nM
66. COc1cc(F)c2ncc(F)c(CCN3C[C@H](CNCc4ccc5c(n4)NC(=O)CS5)[C@H](O)C3)c2c1  462 nM
67. Cc1cccc2nc(-c3cccc(-c4cccc(NC(=O)NCc5cccc(F)c5)c4)c3)[nH]c12  453 nM
68. CN(C)CCN(C)Cc1ccc(-c2ccc3c(Nc4ccc(Oc5ccccn5)cc4)ccnc3c2)o1  424 nM
69. COc1cc(Cc2c(C)nc3nc(N)nc(N)c3c2C)c(Br)c(OC)c1OC  404 nM
70. Cc1ccc(-n2nc3ccc(NC(=O)c4ccc([N+](=O)[O-])o4)cc3n2)cc1C  397 nM
71. O=C(Nc1cccc(CN2CCCN(Cc3ccc(O)cc3)CC2)c1)c1ccc2ccccc2c1  373 nM
72. C=CCOc1ccccc1CNCC(O)c1cc(Br)cs1 (configuration not stated)  332 nM
73. COc1cc(NCCCNCC2c3ccccc3Oc3ccccc32)nc2ccccc12  331 nM
74. CC(=O)N1CCC(C(=O)Nc2ccc(-c3cccc(-c4nc5cccc(C)c5[nH]4)c3)cc2)CC1  313 nM
75. CCNc1cc(C(=O)N[C@@H](Cc2cccc(Cl)c2)[C@H](O)CNC(C)CCCC(C)C)cc(N2CCCCS2(=O)=O)c1 (some centres not stated)  285 nM
76. Cc1cc(NCC(c2ccccc2)c2ccccc2)nc(NCc2ccc(C(F)(F)F)cc2)n1  246 nM
77. O=[N+]([O-])c1cccc(-n2nc(NCc3ccc(Cl)cc3)nc2-c2ccc(F)c(C(F)(F)F)c2)c1  243 nM
78. Cc1[nH]c2c(C)cc(NS(C)(=O)=O)cc2c1C1CCN(CC2CCN(C(=O)/C=C/c3ccc(Cl)c(Cl)c3)CC2)CC1  241 nM
79. COc1ccc(O)c(Cc2cnc3nc(N)[nH]c(=O)c3c2C)c1  234 nM
80. COc1c(C2CCN(CCCCNC(=O)c3ccc(-c4ccc(Cl)cc4)c(O)c3)CC2)ccc2c1CCCC2  226 nM
81. c1cc(-c2cc3ccc(C4=NCCN4)cc3[nH]2)ccc1C1=NCCN1  224 nM
82. O=C(Nc1ccc([N+](=O)[O-])cc1Br)c1cc2ccccc2nc1Cl  185 nM
83. Nc1c2c(nc3ccccc13)C(=Cc1ccc(O)cc1)CCC2  176 nM
84. O=C(Cc1n[nH]c(=O)c2ccccc12)Nc1cccc(C(=O)Nc2cccc(C(F)(F)F)c2)c1  169 nM
85. c1ccc2c(NCCCCCCCCNc3ccnc4ccccc34)ccnc2c1  155 nM
86. CCNc1cc(C(=O)N[C@@H](Cc2ccccc2)[C@H](O)CNC(C)(C)c2cccc(OC)c2)cc(N2CCCC2=O)c1  143 nM
87. COc1ccc2nccc([C@@H](O)CN3CCC(NCCOc4ccc(F)cc4F)CC3)c2c1  141 nM
88. CC(Cc1ccc(OC2CCCCC2)cc1)NCC(O)c1cccc(Cl)c1 (configuration not stated)  138 nM
89. COc1ccc(CNCc2cccc(-c3cccc(-c4nc5cccc(C)c5[nH]4)c3)c2)cc1  134 nM
90. CCOC(=O)NC1=NC(C)(C)N(OCCCOc2ccc(C)cc2C)C(NC(=O)OCC)=N1  126 nM
91. Cc1cccc2nc(-c3ccc(-c4ccc(NC(=O)Nc5cccc(C#N)c5)cc4)s3)[nH]c12  117 nM
92. Cc1cc(N)c2cc(NC(=O)c3cc4ccccc4s3)ccc2n1  115 nM
93. CC(=O)Oc1c(Cl)c(C)nc(C)c1-c1ccc(Oc2ccc(OC(F)(F)F)cc2)cc1  96.2 nM
94. CCc1cn2c3c(cc(C(=O)N[C@@H](Cc4ccccc4)[C@H](O)CNC4CCCCC4)cc13)N(C)S(=O)(=O)C2  87.1 nM
95. CCc1cn2c3c(cc(C(=O)N[C@@H](Cc4ccccc4)[C@H](O)CNC4CCOCC4)cc13)N(C(C)C)S(=O)(=O)CC2  83.6 nM
96. COc1cc2ccccc2c(CON2C(=N)N=C(N)NC2(C)C)c1OC  46.4 nM
97. COC(=O)CCCCOc1c(OC)cc(Cc2cnc(N)nc2N)cc1OC  39.3 nM
